Counter-ions that a name gives are not always drawn. Like-named read-outs stand apart in the source and are kept apart here.
Assays:
[1] = test system: angiotensin II receptor; experiment: Adrenal Glomerulosa Test System: I125-angiotensin II binding to adrenal membranes; details: percent inhibition of I125 angiotensin binding at 10^-5 M of antagonist; rat adrenal membranes; 0.1 nM I125-angiotensin II
Experimental: The ability for compounds of Formula I to block angiotensin II receptor binding was determined using the adrenal glomerulosa assay.
Binding of I^125 -angiotensin II to adrenal membranes was routinely carried out in 96-well filtration plates. Adrenal membranes were prepared from the capsular portion (glomerulosal layer attached) of rat adrenal glands by differential centrifugation. Briefly, capsules were homogenized in a solution containing sucrose, 250 mM; MgCl2, 1 mM; and tris, 5 mM at pH 7.5 and 4° C. using a polytron at setting 5 for 20 seconds. The homogenate was stirred, gently, for 15 minutes at 4° C. and then centrifuged 10 minutes, at 1000×g, 4° C. The supernatant was centrifuged 30 minutes, at 30,000 ×g, 4° C. and the resulting pellet resuspended in 50 mM tris. Membrane preparations were stored in aliquots at -70° C. until used. Binding of I^125 -angiotensin II to adrenal membranes was performed at room temperature for 90 minutes in 96-well plates containing a hydrophilic polyvinylidene fluoride membrane (0.45 μm, millipore-GV multiscreen). Each 250 μl incubate contained the following (final concentration): tris, 50 mM; NaCl, 120 mM; MgCl2, 5 mM; dithiothrietol 1 mM; bovine serum albumin, 0.05%; I^125 -angiotensin II, 0.1 nM; and adrenal membrane protein, 8-15 μg. Antagonists were added in concentrations from 10 nM to 100 μM. Non-specific binding was measured in the presence of 0.1 μM Sar1, Ile8 angiotensin II. Binding was terminated by vacuum filtration. Receptor-ligand complex trapped on filters was washed 3 times with 300 μl ice-cold wash solution (tris, 50 mM; NaCl, 120 mM; MgCl2, 5 mM; dithiothrietol, 1 mM). Filter discs were dried, punched out and counted in a gamma counter at 52% efficiency. Specific binding represented 96% of total binding (approximately 150 fmol angiotensin II/mg protein). Data are expressed as the percent inhibition of I^125 angiotensin binding at 10^-5 M of antagonist.

[2] = target: T1, angiotensin-induced vasoconstriction (rabbit aorta) (Oryctolagus cuniculus, UniProt P34976); experiment: Rabbit Aorta Test System: antagonism of angiotensin II-induced contraction of aortic rings; type: cell-based, New Zealand white rabbits
T1 construct: the thoracic aortas were removed and cleaned of excess fat and connective tissue; from tissue; host or cells: thoracic aorta rings of New Zealand white rabbits
T1 sequence (P34976 1-359): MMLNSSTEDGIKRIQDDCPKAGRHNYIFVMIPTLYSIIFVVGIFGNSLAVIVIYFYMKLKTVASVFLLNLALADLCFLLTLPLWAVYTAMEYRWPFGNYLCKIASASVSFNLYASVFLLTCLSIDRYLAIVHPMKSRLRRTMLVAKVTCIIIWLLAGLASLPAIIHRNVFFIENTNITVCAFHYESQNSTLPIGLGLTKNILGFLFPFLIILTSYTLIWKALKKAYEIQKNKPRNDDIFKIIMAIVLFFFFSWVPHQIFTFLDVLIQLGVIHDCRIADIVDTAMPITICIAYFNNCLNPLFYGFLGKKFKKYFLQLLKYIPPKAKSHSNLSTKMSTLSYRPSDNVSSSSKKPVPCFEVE
Experimental: The ability to antagonize angiotensin-induced vasoconstriction was evaluated in the rabbit aorta test system.
New Zealand white rabbits (Hazelton, 2-3 kg) were sacrificed by cervical dislocation and the thoracic aortas were removed and cleaned of excess fat and connective tissue. Rings of tissue (3 mm wide) were mounted in 10 ml tissue baths between 2 L-shaped stainless steel hooks. The lower hook was attached to a stationary rod and the upper hook to a force displacement transducer (Grass model FT.03). The bath chambers were maintained at 37° C., aerated with 95% O2 /5% CO2, and contained physiological solution of the following composition (mM): NaCl, 117; glucose, 5.6; NaH2 PO4, 1.0; MgSO4, 0.7; KCl, 5.2; CaCl2, 1.8; NaHCO3, 26; and phentolamine HCl, 0.003.
Rings were equilibrated for 1 hour with 2 g of tension. During the equilibration period, the tissues were washed by overflow every 15 minutes. Rings were then exposed to 10^-8 M angiotensin II (AII) and were allowed to contract until a steady state was reached. Tissues were then washed every 15 minutes for 1 hour. This was repeated every hour until the AII response stabilized. A cumulative concentration-response curve to AII (10^-10 to 10^-7 M) was then obtained. At the conclusion of the concentration-response curve, tissues were washed every 2 minutes until baseline tension was reached, then every 15 minutes for 30 minutes. Compounds were added in a volume of 10 μl DMSO and allowed to incubate for 30 minutes before repeating the concentration-response curve to AII. Contractions to AII were expressed as a percent of the maximum contraction obtained in the control curve (the first AII concentration-response curve). EC50 's (concentration that contracted the tissues to 1/2 the control maximum) for each curve were calculated using a 4 parameter logistics model (NonLin, SAS institute).

[3] = pA2 = -log KB, KB = [molar concentration of antagonist]/[(EC50 AII with antagonist/EC50 AII without antagonist)-1], 30 min incubation, AII 10^-10 to 10^-7 M, read-out: Rabbit Aorta (pA2) (converted)

| Structure (SMILES) | Adrenal Glomerulosa (% Inhibition of Binding) [1] [%] | Kb [2, 3] [nM] | Kb [2] [nM] |
| --- | --- | --- | --- |
| CCCCCCC(C(=O)OCC)n1cnc(NC(=O)c2ccccc2C(=O)O)c1 (stereo not drawn) [Example 5, 4-[(2-Carboxybenzoyl)amino]-α-hexyl-1H-imidazole-1-acetic acid ethyl ester] | 39 | 3310 | – |
| CCCCCCC(C(=O)OCC)c1ccc(NC(=O)c2ccccc2C(=O)O)cc1 (stereo not drawn) [Example 9, 4-[(2-Carboxybenzoyl)amino]-α-hexylbenzene-acetic acid ethyl ester] | 25 | 18200 | – |
| CCCCCCC(CC(=O)OC)n1cnc(NC(=O)c2ccccc2C(=O)O)c1 (stereo not drawn) [Example 10, 4-[(2-Carboxybenzoyl)amino]-β-hexyl-1H-imidazole-1-propanoic acid methyl ester] | 57 | 2340 | – |
| CCCCCCC(C#N)n1cnc(NC(=O)c2ccccc2C(=O)O)c1 (stereo not drawn) [Example 12, 4-[(2-Carboxybenzoyl)amino]-α-hexyl-1H-imidazole-1-acetonitrile] | 44 | 2510 | – |
| CCCCCCC(C(=O)OCC)n1cnc(NC(=O)C(O)(c2ccccc2)c2ccccc2)c1 (stereo not drawn) [Example 14, α-Hexyl-4-[(diphenylhydroxyacetyl)amino]-1H-imidazole-1-acetic acid ethyl ester] | 2 | – | 55000 |
| CCCCCCC(C(=O)OCC)n1cnc(NC(=O)C2c3ccccc3-c3ccccc32)c1 (stereo not shown) [Example 15, 4-[(9H-Fluoren-9-ylcarbonyl)amino]-αhexyl-1H-imidazole-1-acetic acid ethyl ester] | 5 | 75900 | – |
| CCCCCCC(C(=O)OCC)c1ccc(NC(=O)C2c3ccccc3-c3ccccc32)cc1 (stereo not drawn) [Example 18, 4-[(9H-Fluoren-9-ylcarbonyl)amino]-α-hexylbenzeneacetic acid ethyl ester] | 3 | 794000 | – |
| CCCCCCC(C(=O)O)n1cnc(NC(=O)C(CC)(c2ccccc2)c2ccccc2)c1 (stereo not drawn) [Example 26, α-Hexyl-4-[(1-oxo-2,2-diphenylbutyl)amino]-1H-imidazole-1-acetic acid] | 57 | 10200 | – |
| CCCCCCC(CC(=O)O)n1cnc(NC(=O)c2cccc(O)c2C(=O)O)c1.O (stereo not drawn) [Example 27, β-Hexyl-4-[(2-carboxy-3-hydroxybenzoyl)amino]-1H-imidazole-1-propanoic acid hydrate] | 64 | 141 | – |
| CCCCCCC(C(=O)O)n1cnc(NC(=O)c2ccc(C)cc2C(=O)O)c1 (stereo not drawn) [Example 28, α-Hexyl-4-[(2-carboxy-4-methylbenzoyl)amino]-1H-imidazole-1-acetic a cid] | 10 | 3470 | – |
| CCCCCCC(C(=O)O)n1cnc(NC(=O)C(O)(c2ccccc2)c2ccccc2)c1 (stereo not drawn) [Example 29, α-Hexyl-[(hydroxydiphenylacetyl)amino]-1H-imidazole-1-acetic acid hydrochloride] | – | – | 25700 |
| CCCCCCC(C(=O)O)n1cnc(NC(=O)c2cccc(O)c2C(=O)O)c1 (stereo not drawn) [Example 30, α-Hexyl-4-[(2-carboxy-3-hydroxybenzoyl)amino]-1H-imidazole-1-acetic monohydrate] | 66 | 110 | – |
| CCCCCCC(C(=O)O)n1cnc(NC(=O)C2c3ccccc3-c3ccccc32)c1 (stereo not drawn) [Example 31, α-Hexyl-9-[(9H-fluoren-9-ylcarbonyl)amino]-1H-imidazole-1-acetic acid hydrochloride] | 70 | 3090 | – |
| CCCCCCC(C(=O)O)n1cnc(NC(=O)C2c3ccccc3Oc3ccccc32)c1.Cl.O (stereo not drawn) [Example 32, α-Hexyl-4-[(9H-xanthen-9-ylcarbonyl)amino]-1H-imidazole-1-acetic acid hydrochloride monohydrate] | 54 | 21400 | – |
| CCCCCCC(C(=O)O)n1cnc(NC(=O)c2ccccc2C(=O)O)c1 (stereo not drawn) [Example 33, 4-[(2-Carboxybenzoyl)amino]-α-hexyl-1H-imidazole-1-acetic acid] | 42 | 631 | – |
| CCCCCCC(C(=O)O)n1cnc(NC(=O)Cc2ccccc2C(=O)O)c1.O (stereo not drawn) [Example 34, α-Hexyl-4-{[(2-carboxyphenyl)acetyl]-amino}-1H-imidazole-1-aceticacid hydrate] | 31 | 1910 | – |
| CCCCCCC(C(=O)O)n1cnc(NC(=O)c2c(C(=O)O)ccc3ccccc23)c1 (stereo not drawn) [Example 35, α-Hexyl-4-{[(2-carboxy-1-naphthalenyl)carbonyl]amino}-1H-imidazole-1-acetic acid] | 36 | 2630 | – |

| Structure (SMILES) | Adrenal Glomerulosa (% Inhibition of Binding) [1] [%] | Kb [2, 3] [nM] | Kb [2] [nM] |
| --- | --- | --- | --- |
| CCCCCCC(C(=O)O)n1cnc(NC(=O)c2cc(C(=O)O)ccc2O)c1 (stereo not drawn) [Example 36, α-Hexyl-4-[(2-hydroxy-5-carboxybenzoyl)amino]-1H-imidazole-1-acetic acid] | 5 | 11700 | – |
| CCCCCCC(C(=O)O)n1cnc(NC(=O)c2c(F)cccc2C(=O)O)c1 (stereo not drawn) [Example 37, 4-[(2-Carboxy-6-fluorobenzoyl)amino]-α-hexyl-1H-imidazole-1-acetic a cid hydrate (1:2.5)] | 0 | 1580 | – |
| CCCCCCC(C(=O)O)c1ccc(NC(=O)c2ccccc2C(=O)O)cc1 (stereo not drawn) [Example 38, α-Hexyl-4-[(2-carboxybenzoyl)amino]benzeneacetic acid] | 30 | 1660 | – |
| CCCCCCC(CC(=O)O)n1cnc(NC(=O)c2ccccc2C(=O)O)c1.O (stereo not drawn) [Example 39, 4-[(2-Carboxybenzoyl)amino]-β-hexyl-1H-imidazole-1-propanoic acid monohydrate] | 44 | 661 | – |
| CCCCCCC(C(=O)O)n1cnc(NC(=O)c2c(C(=O)O)cccc2[N+](=O)[O-])c1 (stereo not drawn) [Example 40, α-Hexyl-4-[(2-carboxy-6-nitrobenzoyl)-amino]-1H-imidazole-1-acetic a cid] | 9 | 1620 | – |
| CCCCCCC(CCC(=O)O)n1cnc(NC(=O)c2ccccc2C(=O)O)c1 (stereo not shown) [Example 41, 4-[(2-Carboxybenzoyl)amino]-γ-hexyl-1H-imidazole-1-butanoic acid hemihydrate] | 30 | 646 | – |
| CCCCCCC(C(=O)O)n1cnc(NC(=O)c2ccccc2-c2nnn[nH]2)c1.O (stereo not drawn) [Example 42, α-Hexyl-4-{[2-(tetrazol-5-yl)benzoyl]-amino}-1H-imidazole-1-acetic a cid monohydrate] | 58 | 331 | – |
| CCCCCCC(C(=O)O)n1cnc(NC(=O)c2ccccc2CC(=O)O)c1.O (stereo not drawn) [Example 43, 4-{[2-(Carboxymethyl)benzoyl]amino}-α-hexyl-1H-imidazole-1-aceticacid monohydrate] | 0 | 955 | – |
| CCCCCCC(C(=O)O)n1cnc(C(=O)NC2c3ccccc3-c3ccccc32)c1.Cl (stereo not drawn) [Example 44, α-Hexyl-4-{[(9H-fluoren-9-yl)amino]-carbonyl}-1H-imidazole-1-acetic acid hydrochloride] | 67 | 3980 | – |
| CCCCCCC(C(=O)O)n1cnc(NC(=O)c2cccc([N+](=O)[O-])c2C(=O)O)c1.O (stereo not drawn) [Example 45, α-Hexyl-4-[(2-carboxy-3-nitrobenzoyl)-amino]-1H-imidazole-1-acetic a cid hydrate] | 0 | 4170 | – |
| CCCCCCC(C(=O)O)c1ccc(NC(=O)C2(O)c3ccccc3-c3ccccc32)cc1 (stereo not drawn) [Example 46, α-Hexyl-4-[(9-hydroxy-9H-fluoren-9-ylcarbonyl)-amino]benzeneacetic acid] | 39 | – | 43700 |
| CCCCCCC(C(=O)O)n1nnc(NC(=O)c2ccccc2C(=O)O)n1 (stereo not drawn) [Example 47, 5-[(2-Carboxybenzoyl)amino]-α-hexyl-2H-tetrazole-2-acetic acid] | 39 | 5010 | – |
| CCCCCCC(C(=O)O)n1cnc(C(=O)NCc2ccc(O)cc2)c1.Cl (stereo not drawn) [Example 81, α-Hexyl-4-({[(4-hydroxyphenyl)methyl]-amino}carbonyl)-1H-imidazole-1-acetic acid hydrochloride] | 41 | – | – |
| CCCCCCC(C(=O)O)n1cnc(C(=O)Nc2ccccc2O)c1.Cl (stereo not drawn) [Example 82, α-Hexyl-4-{[(2-hydroxyphenyl)amino]-carbonyl}-1H-imidazole-1-acetic acid hydrochloride] | 62 | – | – |
| CCCCC(C(=O)O)n1cnc(C(=O)Nc2ccc(O)cc2)c1.Cl (stereo not drawn) [Example 88, α-Butyl-4-{[(4-hydroxyphenyl)amino]-carbonyl}-1H-imidazole-1-acetic acid hydrochloride] | 22 | – | – |
| CCCCCCC(C(=O)O)n1cnc(NC(=O)c2cccc(NC(C)=O)c2C(=O)O)c1 (stereo not drawn) [Example 97, α-Hexyl-4-{[3-(acetylamino)-2-carboxybenzoyl]amino}-1H-imidazole-1-acetic acid hemihydrate] | – | 240 | – |

— patent US5073566A, “Angiotensin II antagonist 1,3-imidazoles and use thereas” (Eli Lilly and Company, priority 1989, dated 1991)
